The target in data set [1] is T1, Coagulation factor VII (Homo sapiens, UniProt P08709).
T1 sequence (P08709 whole entry): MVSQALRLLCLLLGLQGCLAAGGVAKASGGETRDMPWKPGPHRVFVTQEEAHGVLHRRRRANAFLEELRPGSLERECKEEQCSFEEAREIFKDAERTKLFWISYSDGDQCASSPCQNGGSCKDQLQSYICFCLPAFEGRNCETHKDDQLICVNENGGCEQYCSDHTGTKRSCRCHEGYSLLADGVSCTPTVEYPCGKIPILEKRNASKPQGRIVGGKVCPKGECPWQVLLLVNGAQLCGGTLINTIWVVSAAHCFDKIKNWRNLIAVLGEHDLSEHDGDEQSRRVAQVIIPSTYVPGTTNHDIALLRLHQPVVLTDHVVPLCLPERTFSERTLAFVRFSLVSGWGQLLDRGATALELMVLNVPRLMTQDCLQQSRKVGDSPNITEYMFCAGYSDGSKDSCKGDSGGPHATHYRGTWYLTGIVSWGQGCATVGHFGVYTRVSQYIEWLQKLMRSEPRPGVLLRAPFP

A short description of data set [2]: Mean residence time in iv dosed rat. The data set is classed as ADME, organism-based. The following applies: in vivo.
Data set [3] addresses Coagulation factor VII/tissue factor (Homo sapiens) (UniProt P08709+P13726). Conditions: Plasma.
Description: Anticoagulant potency in human plasma as measured by prothrombin time
Data set [4] can be described thus: Mean residence time in iv dosed Sprague-Dawley rat. In kind it is ADME, organism-based. The following applies: in vivo.
A short description of data set [5]: Cmax in portal vein catheter of Sprague-Dawley rat at 10 mg/kg, po. Further details: dose 10 mg/kg, route oral. In kind it is ADME, organism-based. Conditions: in vivo.
Data set [6] in a line: AUC in jugular vein catheter of Sprague-Dawley rat at 10 mg/kg, po. The data set is classed as ADME, organism-based. Conditions: plasma. Further details: dose 10 mg/kg, route oral.
Data set [7] is described as follows: Terminal half life in jugular vein catheter of Sprague-Dawley rat at 10 mg/kg, po. In kind it is ADME, organism-based. More on the design: dose 10 mg/kg, route oral. The following applies: in vivo.
The nature of data set [8]: Tmax in portal vein catheter of Sprague-Dawley rat at 10 mg/kg, po. In kind it is ADME, organism-based. The following applies: in vivo. More on the design: dose 10 mg/kg, route oral.
The nature of data set [9]: Terminal half life in portal vein catheter of Sprague-Dawley rat at 10 mg/kg, po. The data set is classed as ADME, organism-based. Further details: dose 10 mg/kg, route oral. The following applies: in vivo.
The nature of data set [10]: Cmax in jugular vein catheter of Sprague-Dawley rat at 10 mg/kg, po. The data set is classed as ADME, organism-based. Further details: dose 10 mg/kg, route oral. Conditions: in vivo.
The nature of data set [11]: Tmax in jugular vein catheter of Sprague-Dawley rat at 10 mg/kg, po. The data set is classed as ADME, organism-based. Conditions: in vivo. More on the design: dose 10 mg/kg, route oral.
Data set [12] can be described thus: AUC in portal vein catheter of Sprague-Dawley rat at 10 mg/kg, po. In kind it is ADME, organism-based. More on the design: dose 10 mg/kg, route oral. Conditions: plasma.
Data set [13] is described as follows: Oral absorption in Sprague-Dawley rat at 10 mg/kg, po (AUC po, pv/AUC iv, jv). In kind it is ADME, organism-based. Further details: dose 10 mg/kg, route oral. The following applies: in vivo.
Data set [14] in a line: Oral bioavailability in Sprague-Dawley rat at 10 mg/kg, po (AUC po, jv/AUC iv, jv). In kind it is ADME, organism-based. Conditions: in vivo.

Data on eleven molecules can be found in ChEMBL document CHEMBL1137427, “Efforts toward oral bioavailability in factor VIIa inhibitors” (Bioorg Med Chem Lett, 2006).

What is called Ki is a measure of affinity in units of concentration, obtained from inhibition or displacement. A low value points to higher affinity. In general, MRT refers to a mean duration of stay, worked out from the concentration-time curve. Molecule `Cc1cc(-c2nc3cc(C(=N)N)ccc3[nH]2)c(O)c(-c2cc(CNC(N)=O)ccc2O)c1` showed a Ki in data set [1] of 4 nM. Moreover, the mean residence time MRT in data set [2] was < 20 min. This molecule gave a 2PT in [3] of 2 µM.
For `N=C(N)c1ccc2[nH]c(-c3cc(F)cc(-c4cc(CNC(N)=O)ccc4O)c3O)nc2c1`, in that order: 5 nM, < 20 min and 2.5 µM.
`CN(C)CCCC(=O)NCc1ccc(O)c(-c2cccc(-c3cc4cc(C(=N)N)ccc4[nH]3)c2O)c1` had an MRT in data set [4] of 50 min. For the same molecule, the Ki in [1] worked out at 16 nM. For the same molecule, the 2PT in data set [3] is 0.9 µM.
Take `N=C(N)c1ccc2[nH]c(-c3cccc(-c4cc(CNC(N)=O)ccc4O)c3O)nc2c1`: the affinity in data set [1], expressed as Ki, was 14 nM. For the same molecule, the MRT in data set [2] is 20 min. This molecule also gave a 2PT in [3] of 2.3 µM.
`CC(=O)NCc1ccc(O)c(-c2cccc(-c3cc4cc(C(=N)N)ccc4[nH]3)c2O)c1` displayed a Ki in data set [1] of 120 nM.
In [4], `N=C(N)c1ccc2[nH]c(-c3cccc(-c4cc(CNC(=O)CO)ccc4O)c3O)cc2c1` showed an MRT of 117 min. In data set [1], this molecule displayed a Ki of 3 nM. Further, in [3], the 2PT amounted to 0.9 µM.
`N=C(N)c1ccc2[nH]c(-c3cc(C(CC(=O)O)C(=O)O)cc(-c4cc(CNC(N)=O)ccc4O)c3O)nc2c1` (centres undefined) registered a Ki in data set [1] of 1 nM. Besides, the MRT in [2] was > 60 min. This molecule returned a 2PT in data set [3] of 1.9 µM.
`N=C(N)c1ccc2[nH]c(-c3cccc(-c4cc(CNC(=O)N5CCOCC5)ccc4O)c3O)cc2c1`: in data set [1], the Ki turned out to be 17 nM. Besides, the 2PT in data set [3] is 2 µM.
One may read the Cmax as the peak of the concentration-time curve. As a reminder, the AUC is the area under the concentration-time curve, a measure of exposure. Low readings indicate less exposure, high ones more exposure. As a reminder, the half-life is the time needed for the level to fall by half in the phase considered. Read a high half-life as slow loss. A word on the Tmax: it is the time at which the peak concentration occurs. The molecule `CCCCCC(=O)NCc1ccc(O)c(-c2cccc(-c3cc4cc(C(=N)N)ccc4[nH]3)c2O)c1` gave an MRT in [4] of 89 min. In addition, the results for the Cmax in [5] and in [10] were 14 nM and 12 nM, respectively. The values for the AUC in [6] and in data set [12] were 0.0122 µM·h and 0.0147 µM·h, respectively. In addition, the affinity in data set [1], expressed as Ki, was 13 nM. Moreover, the half-life worked out at 37 min in data set [7] and 26 min in [9]. The Tmax in data set [8] is 40 min; in data set [11], 30 min. The molecule further returned a 2PT in data set [3] of 1.4 µM.
Consider `N=C(N)c1ccc2[nH]c(-c3cc(CC(=O)O)cc(-c4cc(CNC(N)=O)ccc4O)c3O)nc2c1`, for which affinity in data set [1] was put at a Ki of 14 nM. Besides, the MRT in [2] was < 20 min.
Broadly, the bioavailability is the share of a dose that reaches the circulation, judged against a reference dose that is usually intravenous. For the molecule `CCCCCC(=O)NCc1ccc(O)c(-c2cccc(-c3cc4cc(C(=N)NO)ccc4[nH]3)c2O)c1`, the Cmax was determined as 1310 nM in data set [5] and 1730 nM in data set [10]. The AUC in [6] is 2.4 µM·h; in data set [12], 2.03 µM·h. Further, the half-life in data set [7] came to 54 min; in data set [9] it was 49 min. Moreover, the Tmax in [8] is 31 min; in data set [11], 30 min. Moreover, in [13], the Fa stood at 9%. The bioavailability in data set [14] came to 11%.
